Consider 11 compounds from ChEMBL document CHEMBL1201862, “PubChem BioAssay data set” (2004).

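Where inhibition never reached the appropriate level, the endpoint shown equals the highest concentration tested. Otherwise, values were interpolated linearly from a five-concentration, 48-hour dose response in 96-well plates. GI50: concentration for 50% inhibition of growth.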 Active and inactive are the calls of the source. No stated cut-off is given here; in the data, active = GI50 up to about 1.1 µM and inactive = higher. A value given as a limit tells only on which side of the number the result lay.

Test systems include M14; HT-29; HCT-116; UO-31; SF-539; NCI-H522; RPMI-8226; EKVX; OVCAR-3; KM12; HCT-15; A549; HCC 2998; NCI-H460; 786-0.
Common to all, as to assay: NCI tumour cell line growth inhibition, 48 h

As for `O=C(O)COc1ccc(O)c2c1C(=O)CCCC2=O`, the GI50 in the assay with M14, in the assay on HT-29, in the assay with HCT-116, in the assay with UO-31, with SF-539 and with NCI-H522 was > 100 µM (inactive) each time. The GI50 is > 100 µM (inactive) in the assay with RPMI-8226; > 100 µM (inactive) with EKVX; > 100 µM (inactive) in the assay with OVCAR-3; > 100 µM (inactive) with KM12; over 100 µM with HCT-15; > 100 µM (inactive) in the assay with A549. Further, the GI50 with HCC 2998, in the assay with NCI-H460 and in the assay with 786-0 was > 100 µM (inactive) each time.
For the compound `CCC12CCCNC1c1c(n(C)c3ccccc13)C(C(=O)OC)C2` (configuration not stated), the GI50 was 38.1 µM (inactive) in the assay with HT-29; 37.6 µM (inactive) with HCT-116; 108 µM (inactive) in the assay with SF-539; 8.02 µM (inactive) in the assay on NCI-H522; 9.4 µM (inactive) in the assay on RPMI-8226; 79.3 µM (inactive) in the assay on EKVX. The GI50 in the assay on OVCAR-3 is 11.2 µM (inactive); in the assay on KM12, 58.3 µM (inactive); in the assay on HCT-15, 81.1 µM; in the assay with A549, 93.3 µM (inactive); with HCC 2998 it was 67.8 µM (inactive); with NCI-H460 it was 76.9 µM (inactive). In the assay on 786-0, the GI50 is 93.8 µM (inactive).
Consider `O=C1NC2C=CN(Cc3ccccc3)C=C2C(=O)N2CCCC12` (configuration not stated), for which the GI50 in the assay on M14, in the assay with HT-29, in the assay on HCT-116, in the assay on UO-31, with SF-539 and with NCI-H522 was > 100 µM (inactive) throughout. For the same compound, the GI50 with EKVX was > 100 µM (inactive); in the assay with OVCAR-3, > 100 µM (inactive); in the assay with KM12 it was > 100 µM (inactive); in the assay with HCT-15 it was over 100 µM; in the assay on A549 it was > 100 µM (inactive); with HCC 2998 it was > 100 µM (inactive). Moreover, the GI50 in the assay with NCI-H460 and in the assay on 786-0 was > 100 µM (inactive) in each case.
With `N#C/C(=N\c1ccccc1N(C(=O)c1ccccc1)C(=O)c1ccccc1)c1ccccc1`, the GI50 in the assay on M14 is > 100 µM (inactive); in the assay on HT-29, 15.3 µM (inactive); in the assay with HCT-116, 6.43 µM (inactive); with UO-31, > 55.5 µM (inactive); with SF-539 it was > 100 µM (inactive); in the assay with NCI-H522 it was 4.91 µM (inactive). In addition, the GI50 was 5.97 µM (inactive) in the assay on RPMI-8226; > 100 µM (inactive) with EKVX; 8.91 µM (inactive) in the assay on OVCAR-3; 3.62 µM (inactive) in the assay with KM12; 5.14 µM with HCT-15; 9.04 µM (inactive) in the assay on A549. The GI50 in the assay with HCC 2998 is > 68.4 µM (inactive); with NCI-H460, 32.8 µM (inactive); in the assay with 786-0, > 91.6 µM (inactive).
As for `C=C1c2ccccc2N(S(=O)(=O)c2ccc(C)cc2)C12CCCCC2`, the GI50 is 94.4 µM (inactive) in the assay on M14; 52.4 µM (inactive) with HT-29; 33 µM (inactive) in the assay on HCT-116; > 100 µM (inactive) with UO-31; > 100 µM (inactive) in the assay on SF-539; 34.8 µM (inactive) in the assay on NCI-H522. The GI50 in the assay on RPMI-8226 was 24.4 µM (inactive); in the assay with EKVX, > 100 µM (inactive); with OVCAR-3 it was 77.6 µM (inactive); in the assay on KM12, 38.5 µM (inactive); with HCT-15, over 100 µM; in the assay on A549, 63.4 µM (inactive). The GI50 was > 100 µM (inactive) in the assay on HCC 2998, 86.7 µM (inactive) in the assay with NCI-H460 and > 100 µM (inactive) in the assay with 786-0.
Regarding `C=CCOC1CC(n2cnc3c(N)ncnc32)OC1CO` (configuration not stated), the GI50 in the assay on M14, in the assay with HT-29, in the assay on HCT-116, in the assay on UO-31, in the assay on SF-539 and in the assay on NCI-H522 was > 100 µM (inactive) in each case. The GI50 was > 100 µM (inactive) in the assay on RPMI-8226; > 100 µM (inactive) in the assay on OVCAR-3; > 100 µM (inactive) in the assay with KM12; over 100 µM in the assay with HCT-15; > 100 µM (inactive) with A549; > 100 µM (inactive) with HCC 2998. For the same compound, the GI50 in the assay with NCI-H460 and with 786-0 was > 100 µM (inactive) in each case.
Take `COc1cc(C)c(C(=O)/C=C/c2cc(OC)c(O)c(OC)c2)cc1O`: the GI50 was 15.3 µM (inactive) in the assay with M14; 30.6 µM (inactive) with HT-29; 14.1 µM (inactive) in the assay with HCT-116; 23 µM (inactive) with UO-31; 29.6 µM (inactive) in the assay with SF-539; 18.1 µM (inactive) in the assay with NCI-H522. For the same compound, the GI50 with RPMI-8226 is > 100 µM (inactive); in the assay with EKVX, 32.4 µM (inactive); with OVCAR-3 it was 25.2 µM (inactive); in the assay with KM12, 15.9 µM (inactive); in the assay on A549, 29.3 µM (inactive); in the assay with HCC 2998, 16.4 µM (inactive). For the same compound, the GI50 in the assay with NCI-H460 is 25.1 µM (inactive); in the assay with 786-0, 19.2 µM (inactive).
For `NC(CO)c1ccc(OCc2ccccc2)cc1` (configuration not stated), the GI50 with M14 was > 100 µM (inactive); in the assay with HT-29, > 100 µM (inactive); in the assay with HCT-116 it was > 78.7 µM (inactive); in the assay with UO-31, 44.3 µM (inactive); in the assay on SF-539 it was > 100 µM (inactive); with NCI-H522, 42 µM (inactive). The GI50 is > 100 µM (inactive) in the assay with RPMI-8226; 89.3 µM (inactive) with EKVX; > 100 µM (inactive) in the assay on OVCAR-3; > 100 µM (inactive) with KM12; over 91.8 µM with HCT-15; > 100 µM (inactive) in the assay with A549. For the same compound, the GI50 with HCC 2998, with NCI-H460 and with 786-0 was > 100 µM (inactive) each time.
Turning to `Cc1cc(Cl)ccc1NC(=O)C1C(=O)C(=O)N(c2ccc(Cl)cc2C)C1=O` (configuration not stated), the GI50 was 31.2 µM (inactive) in the assay with M14; 96.2 µM (inactive) in the assay on HT-29; 43.8 µM (inactive) with HCT-116; 75.7 µM (inactive) with UO-31; > 100 µM (inactive) with SF-539; 60.3 µM (inactive) with NCI-H522. For the same compound, the GI50 was 29 µM (inactive) with RPMI-8226; 36.8 µM (inactive) with EKVX; 36.9 µM (inactive) in the assay with OVCAR-3; 57.5 µM in the assay with HCT-15; > 100 µM (inactive) in the assay with A549; > 100 µM (inactive) with HCC 2998. In the assay with 786-0, the GI50 is > 100 µM (inactive).
For `COc1cc2cc3c4c(cc(OC)c(OC)c4c2cc1OC)CCN3C(=O)CCC(=O)O`, the GI50 in the assay with M14, in the assay on HT-29, in the assay on HCT-116, in the assay with UO-31, in the assay on SF-539 and in the assay on NCI-H522 was > 100 µM (inactive) in each case. In addition, the GI50 in the assay on RPMI-8226, in the assay with EKVX, in the assay on OVCAR-3, in the assay on KM12, in the assay with A549 and in the assay with HCC 2998 was > 100 µM (inactive) throughout. Further, the GI50 in the assay on 786-0 is > 100 µM (inactive).
For `CC(=O)O/N=C/c1cc2c(cc1Br)OCO2`, the GI50 is > 349 µM (inactive) in the assay on HT-29; 185 µM (inactive) in the assay with NCI-H522; > 349 µM (inactive) in the assay on RPMI-8226; > 349 µM (inactive) with EKVX; 137 µM (inactive) in the assay with OVCAR-3; > 349 µM (inactive) in the assay with KM12. The GI50 in the assay on HCT-15 is over 349 µM; in the assay on A549, > 349 µM (inactive); in the assay with HCC 2998, > 349 µM (inactive); in the assay on NCI-H460, > 349 µM (inactive); in the assay on 786-0 it was > 349 µM (inactive).
